{"source": "patent US9050341B2", "about": "“Methods of treating drug resistant and other tumors by administering 6,7-dialkoxy quinazoline derivatives” (NATCO PHARMA LIMITED, priority 2009, dated 2015)", "experiment_in_all_cases": "KinomeScan kinase profiling", "type_in_all_cases": "binding", "key": {"ABL1 (E255K)": {"molecular_target": "T1, ABL1 (E255K) (Homo sapiens, UniProt P00519, E255K)", "T1 construct": "host or cells: E. coli host derived from BL21 (T7 phage lysate)", "T1 sequence (P00519 whole entry E255K)": "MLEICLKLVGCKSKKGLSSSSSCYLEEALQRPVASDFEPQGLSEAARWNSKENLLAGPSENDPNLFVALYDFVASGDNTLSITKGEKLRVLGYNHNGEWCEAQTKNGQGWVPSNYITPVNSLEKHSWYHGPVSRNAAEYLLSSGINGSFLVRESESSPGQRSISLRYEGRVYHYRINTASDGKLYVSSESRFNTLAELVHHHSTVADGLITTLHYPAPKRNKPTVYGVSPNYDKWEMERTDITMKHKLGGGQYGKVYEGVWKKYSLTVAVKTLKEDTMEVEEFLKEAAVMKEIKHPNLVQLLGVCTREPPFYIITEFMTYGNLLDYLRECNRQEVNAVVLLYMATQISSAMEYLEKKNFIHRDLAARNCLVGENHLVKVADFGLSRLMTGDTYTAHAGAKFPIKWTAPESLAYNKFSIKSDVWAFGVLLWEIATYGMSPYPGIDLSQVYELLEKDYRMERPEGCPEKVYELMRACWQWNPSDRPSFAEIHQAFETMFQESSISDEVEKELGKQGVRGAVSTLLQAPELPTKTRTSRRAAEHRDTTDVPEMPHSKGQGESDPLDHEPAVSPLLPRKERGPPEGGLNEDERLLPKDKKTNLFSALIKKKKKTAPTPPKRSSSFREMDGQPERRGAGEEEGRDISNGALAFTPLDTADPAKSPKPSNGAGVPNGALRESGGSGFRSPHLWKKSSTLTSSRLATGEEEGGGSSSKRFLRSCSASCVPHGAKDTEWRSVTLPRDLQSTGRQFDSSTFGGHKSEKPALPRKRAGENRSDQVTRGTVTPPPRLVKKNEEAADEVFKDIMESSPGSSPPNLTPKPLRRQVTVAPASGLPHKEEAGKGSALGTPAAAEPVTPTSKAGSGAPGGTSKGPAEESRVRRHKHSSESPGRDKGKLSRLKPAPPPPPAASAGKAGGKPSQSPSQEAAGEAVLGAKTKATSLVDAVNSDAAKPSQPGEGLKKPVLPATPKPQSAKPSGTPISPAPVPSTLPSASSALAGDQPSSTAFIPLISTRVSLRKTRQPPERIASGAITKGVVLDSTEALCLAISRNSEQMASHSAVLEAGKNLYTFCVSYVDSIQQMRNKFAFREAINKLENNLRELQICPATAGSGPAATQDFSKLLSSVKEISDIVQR", "text": "(§1) The kinases were ABL1(F317L), ABL1(H396P), ABL1(Q252H), ABL1(Y253F), ADCK3, ADCK4, ALK, ARK5, AXL, BLK, BRSK2, CDK7, CIT, CLK4, CSNK1D, CSNK1E, DAPK1, DAPK3, DCAMKL3, DMPK, EGFR, EGFR(E746-A750DEL), EGFR(G719C), EGFR(G719S), EGFR(L747-E749DEL, A750P), EGFR(L747-S752 DEL, P753S), EGFR(L747-T751DEL, Sin), EGFR(L858R), EGFR(L861Q), EGFR(S752-I759DEL), EPHA5, EPHA6, ERBB2, ERBB4, ERK3, ERK4, FGR, FLT3(D835H), FLT3(D835Y), FLT3(ITD), FLT3(N841 I), FRK, GAK, GCN2(KIN.DOM.2, S808G), HCK, IRAK3, JAK1(KIN.DOM.1), KIT, KIT(D816V), KIT(V559D), KIT(V559D,T670I), LCK, LOK, LTK, LYN, MAP3K3, MAP4K4, MAP4K5, MET, MINK, MKNK1, MKNK2, MST4, MYLK2, PDGFRB, PIM3, PKN2, PRKD1, PRKD2, PRKD3, PRKG1, RIPK2, RPS6KA4(KIN.DOM.2), SIK2, SLK, SNARK, SRC, STK36, TNIK, TNNI3K, TYK2(KIN.DOM.2).\n(§2) Kinase assays: Assays were performed as described in Fabian et al. (2005) Nature Biotechnology, vol. 23, p. 329. Kinase-tagged T7 phage strains were grown in parallel in 24 or 96-well blocks in an E. coli host derived from the BL21 strain. E. coli were grown to log-phase and infected with T7 phage from a frozen stock (multiplicity of infection ˜0.1) and incubated with shaking at 32° C. until lysis (˜90 minutes). The lysates were centrifuged and filtered to remove cell debris. […] The liganded beads were blocked with excess biotin and washed with blocking buffer (SeaBlock (Pierce), 1% BSA, 0.05% Tween 20, 1 mM DTT) to remove unbound ligand and to reduce non-specific phage binding.\n(§3) Test compounds were prepared as 40× stocks in DMSO and diluted into the aqueous environment. 2.5% DMSO was added to control assays lacking a test compound. All reactions were performed in polystyrene 96-well plates that had been pretreated with blocking buffer in a final volume of 0.04 ml. […] The phage titer in the eluates was measured by quantitative PCR."}, "ASK1": {"molecular_target": "T2, ASK1 (Homo sapiens, UniProt Q99683)", "T2 construct": "purchased Ambit Biosciences Corp (KinomeScan); host or cells: E. coli host derived from the BL21 strain, T7 phage", "text": "as §1, §2, §3"}, "BLK": {"molecular_target": "T3, BLK (Homo sapiens, UniProt P51451)", "T3 construct": "purchased Ambit Biosciences Corp (KinomeScan); host or cells: E. coli host derived from the BL21 strain, T7 phage", "text": "as §1, §2, §3"}, "CLK4": {"molecular_target": "T4, CLK4 (Homo sapiens, UniProt Q9HAZ1)", "T4 construct": "host or cells: T7 phage in E. coli (BL21-derived)", "text": "as §1, §2, §3"}, "DAPK1": {"molecular_target": "T5, DAPK1 (Homo sapiens, UniProt P53355)", "T5 construct": "purchased Ambit Biosciences Corp (KinomeScan); host or cells: T7 phage in E. coli host derived from BL21", "text": "as §1, §2, §3"}, "DDR1": {"molecular_target": "T6, DDR1 (Homo sapiens, UniProt Q08345)", "T6 construct": "purchased Ambit Biosciences Corp (KinomeScan); host or cells: T7 phage in E. coli host derived from BL21", "T6 sequence (Q08345 19-913)": "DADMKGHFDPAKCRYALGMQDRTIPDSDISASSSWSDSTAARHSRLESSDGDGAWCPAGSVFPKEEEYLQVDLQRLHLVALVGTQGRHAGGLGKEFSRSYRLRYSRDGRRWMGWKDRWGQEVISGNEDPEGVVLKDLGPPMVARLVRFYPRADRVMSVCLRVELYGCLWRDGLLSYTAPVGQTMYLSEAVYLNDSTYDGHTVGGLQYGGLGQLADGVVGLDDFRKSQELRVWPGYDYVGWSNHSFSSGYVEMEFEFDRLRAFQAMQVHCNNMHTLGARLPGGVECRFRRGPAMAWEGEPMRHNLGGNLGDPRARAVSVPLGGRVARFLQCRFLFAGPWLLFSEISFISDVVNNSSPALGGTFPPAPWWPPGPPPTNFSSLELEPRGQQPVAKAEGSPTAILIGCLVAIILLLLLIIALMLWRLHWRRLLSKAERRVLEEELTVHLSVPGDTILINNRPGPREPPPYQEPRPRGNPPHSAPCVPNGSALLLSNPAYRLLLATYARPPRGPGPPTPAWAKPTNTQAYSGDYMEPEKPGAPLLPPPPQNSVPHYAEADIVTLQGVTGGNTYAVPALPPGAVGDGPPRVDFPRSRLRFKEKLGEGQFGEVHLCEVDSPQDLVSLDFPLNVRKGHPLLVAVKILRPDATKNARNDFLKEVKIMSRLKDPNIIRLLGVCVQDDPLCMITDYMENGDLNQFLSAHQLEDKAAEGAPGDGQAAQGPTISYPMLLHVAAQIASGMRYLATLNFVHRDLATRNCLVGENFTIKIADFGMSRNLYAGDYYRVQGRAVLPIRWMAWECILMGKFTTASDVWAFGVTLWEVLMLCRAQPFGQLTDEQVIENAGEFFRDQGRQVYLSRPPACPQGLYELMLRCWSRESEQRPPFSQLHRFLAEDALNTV", "text": "as §1, §2, §3"}, "EPHA5": {"molecular_target": "T7, EPHA5 (Homo sapiens, UniProt P54756)", "T7 construct": "host or cells: E. coli host derived from BL21, T7 phage lysate", "T7 sequence (P54756 25-1037)": "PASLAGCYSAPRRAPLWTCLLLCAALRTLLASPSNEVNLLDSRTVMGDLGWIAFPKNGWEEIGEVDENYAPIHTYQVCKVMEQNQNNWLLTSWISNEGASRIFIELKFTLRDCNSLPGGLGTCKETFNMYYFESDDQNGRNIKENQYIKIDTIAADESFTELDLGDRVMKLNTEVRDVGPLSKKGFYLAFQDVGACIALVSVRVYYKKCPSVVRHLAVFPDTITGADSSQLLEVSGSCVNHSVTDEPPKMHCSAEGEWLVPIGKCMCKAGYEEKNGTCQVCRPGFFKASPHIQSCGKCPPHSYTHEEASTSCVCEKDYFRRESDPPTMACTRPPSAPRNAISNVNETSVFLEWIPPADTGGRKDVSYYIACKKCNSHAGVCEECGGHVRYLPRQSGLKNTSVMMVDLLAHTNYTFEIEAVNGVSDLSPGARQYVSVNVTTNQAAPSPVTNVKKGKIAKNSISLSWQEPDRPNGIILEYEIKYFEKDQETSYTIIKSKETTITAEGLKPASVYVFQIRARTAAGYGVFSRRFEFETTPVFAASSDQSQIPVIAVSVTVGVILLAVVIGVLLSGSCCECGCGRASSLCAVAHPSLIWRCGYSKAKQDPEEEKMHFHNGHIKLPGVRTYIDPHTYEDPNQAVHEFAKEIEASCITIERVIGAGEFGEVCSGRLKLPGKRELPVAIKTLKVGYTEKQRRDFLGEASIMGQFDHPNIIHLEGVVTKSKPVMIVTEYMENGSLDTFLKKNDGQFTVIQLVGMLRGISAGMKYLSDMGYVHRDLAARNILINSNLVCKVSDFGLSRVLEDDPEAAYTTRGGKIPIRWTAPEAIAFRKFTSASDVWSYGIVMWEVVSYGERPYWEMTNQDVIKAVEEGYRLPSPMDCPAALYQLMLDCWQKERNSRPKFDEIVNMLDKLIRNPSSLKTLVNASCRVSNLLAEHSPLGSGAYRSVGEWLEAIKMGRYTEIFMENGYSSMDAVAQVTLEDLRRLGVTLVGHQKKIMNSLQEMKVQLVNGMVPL", "text": "as §1, §2, §3"}, "FES": {"molecular_target": "T8, FES (Homo sapiens, UniProt P07332)", "T8 construct": "host or cells: E. coli host derived from BL21, infected with T7 phage", "text": "as §1, §2, §3"}, "FLT4": {"molecular_target": "T9, FLT4 (Homo sapiens, UniProt P35916)", "T9 construct": "host or cells: E. coli host derived from BL21, infected with T7 phage", "text": "as §1, §2, §3"}, "GCN2 (Kin.Dom.2.S808G)": {"molecular_target": "T10, GCN2 (Kin.Dom.2.S808G) (Homo sapiens, UniProt Q9P2K8, S808G)", "T10 construct": "GCN2(KIN.DOM.2, S808G); host or cells: E. coli host derived from BL21, infected with T7 phage", "T10 sequence (Q9P2K8 590-1001 S808G limits assumed)": "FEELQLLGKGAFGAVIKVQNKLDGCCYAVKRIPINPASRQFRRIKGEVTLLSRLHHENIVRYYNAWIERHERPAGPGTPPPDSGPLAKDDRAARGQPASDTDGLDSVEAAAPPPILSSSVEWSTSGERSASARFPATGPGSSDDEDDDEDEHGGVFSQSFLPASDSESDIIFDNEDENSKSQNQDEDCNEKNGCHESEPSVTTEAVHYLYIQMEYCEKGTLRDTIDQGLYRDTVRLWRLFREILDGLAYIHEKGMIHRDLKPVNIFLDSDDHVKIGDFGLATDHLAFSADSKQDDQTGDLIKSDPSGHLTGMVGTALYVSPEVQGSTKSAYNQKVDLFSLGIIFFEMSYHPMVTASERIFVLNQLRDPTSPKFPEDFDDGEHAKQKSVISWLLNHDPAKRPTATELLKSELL", "text": "as §1, §2, §3"}, "IKK-alpha": {"molecular_target": "T11, IKK-alpha (Homo sapiens, UniProt O15111)", "T11 construct": "host or cells: T7 phage in E. coli host derived from BL21", "text": "as §1, §2, §3"}, "LTK": {"molecular_target": "T12, LTK (Homo sapiens, UniProt P29376)", "T12 construct": "host or cells: E. coli derived from BL21, infected with T7 phage", "T12 sequence (P29376 17-864)": "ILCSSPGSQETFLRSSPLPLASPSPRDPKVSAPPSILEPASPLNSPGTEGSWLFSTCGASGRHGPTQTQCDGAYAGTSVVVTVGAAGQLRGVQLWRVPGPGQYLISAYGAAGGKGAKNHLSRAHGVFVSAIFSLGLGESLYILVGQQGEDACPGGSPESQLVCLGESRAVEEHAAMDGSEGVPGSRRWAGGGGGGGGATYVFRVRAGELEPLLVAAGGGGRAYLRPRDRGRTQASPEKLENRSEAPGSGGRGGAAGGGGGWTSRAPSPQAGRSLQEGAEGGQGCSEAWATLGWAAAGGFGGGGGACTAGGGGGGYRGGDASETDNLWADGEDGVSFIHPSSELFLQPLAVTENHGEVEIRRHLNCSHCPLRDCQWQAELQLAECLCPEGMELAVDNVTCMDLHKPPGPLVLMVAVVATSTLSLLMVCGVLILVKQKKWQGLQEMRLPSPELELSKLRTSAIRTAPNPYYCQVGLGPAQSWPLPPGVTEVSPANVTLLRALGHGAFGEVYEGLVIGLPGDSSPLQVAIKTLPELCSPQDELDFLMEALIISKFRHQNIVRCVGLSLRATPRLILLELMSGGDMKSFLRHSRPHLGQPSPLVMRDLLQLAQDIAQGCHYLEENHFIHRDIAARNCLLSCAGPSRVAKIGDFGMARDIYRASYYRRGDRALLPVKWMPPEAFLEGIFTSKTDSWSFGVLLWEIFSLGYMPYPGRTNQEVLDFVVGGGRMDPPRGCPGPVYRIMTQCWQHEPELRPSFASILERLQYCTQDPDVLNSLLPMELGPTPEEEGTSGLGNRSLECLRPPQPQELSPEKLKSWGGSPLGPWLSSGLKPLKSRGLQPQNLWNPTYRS", "text": "as §1, §2, §3"}, "MKNK1": {"molecular_target": "T13, MKNK1 (Homo sapiens, UniProt Q9BUB5)", "T13 construct": "host or cells: T7 phage in E. coli host derived from BL21", "text": "as §1, §2, §3"}, "PAK7": {"molecular_target": "T14, PAK7 (Homo sapiens, UniProt Q9P286)", "T14 construct": "host or cells: E. coli host derived from the BL21 strain, infected with T7 phage", "text": "as §1, §2, §3"}, "PIK3CB": {"molecular_target": "T15, PIK3CB (Homo sapiens, UniProt P42338)", "T15 construct": "host or cells: E. coli host derived from the BL21 strain, infected with T7 phage", "text": "as §1, §2, §3"}, "RAF1": {"molecular_target": "T16, RAF1 (Homo sapiens, UniProt P04049)", "T16 construct": "host or cells: E. coli host derived from BL21, T7 phage lysate", "text": "as §1, §2, §3"}, "RIPK4": {"molecular_target": "T17, RIPK4 (Homo sapiens, UniProt P57078)", "T17 construct": "host or cells: E. coli host derived from BL21, T7 phage lysate", "text": "as §1, §2, §3"}, "[1]": {"molecular_target": "T18, RPS6KA6 (Kin.Dom.-2-C-terminal) (Homo sapiens, UniProt Q9UK32)", "T18 construct": "RPS6KA6 (Kin.Dom.-2-C-terminal); host or cells: E. coli host derived from the BL21 strain, T7 phage lysate", "T18 sequence (Q9UK32 426-683 limits assumed)": "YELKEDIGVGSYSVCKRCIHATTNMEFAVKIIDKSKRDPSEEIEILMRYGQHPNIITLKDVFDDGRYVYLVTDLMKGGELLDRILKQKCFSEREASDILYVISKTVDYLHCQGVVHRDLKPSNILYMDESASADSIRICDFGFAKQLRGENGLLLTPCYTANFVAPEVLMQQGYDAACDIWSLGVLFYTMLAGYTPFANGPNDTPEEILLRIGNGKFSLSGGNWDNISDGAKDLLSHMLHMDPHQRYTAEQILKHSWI", "text": "as §1, §2, §3"}, "TXK": {"molecular_target": "T19, TXK (Homo sapiens, UniProt P42681)", "T19 construct": "purchased Ambit Biosciences Corp (KinomeScan); host or cells: E. coli host derived from the BL21 strain (T7 phage lysate)", "text": "as §1, §2, §3"}, "ULK3": {"molecular_target": "T20, ULK3 (Homo sapiens, UniProt Q6PHR2)", "T20 construct": "purchased Ambit Biosciences Corp (KinomeScan); host or cells: E. coli host derived from the BL21 strain (T7 phage lysate)", "text": "as §1, §2, §3"}, "WEE1": {"molecular_target": "T21, WEE1 (Homo sapiens, UniProt P30291)", "T21 construct": "purchased Ambit Biosciences Corp (KinomeScan); host or cells: E. coli host derived from the BL21 strain (T7 phage lysate)", "text": "as §1, §2, §3"}, "WEE2": {"molecular_target": "T22, WEE2 (Homo sapiens, UniProt P0C1S8)", "T22 construct": "purchased Ambit Biosciences Corp (KinomeScan); host or cells: E. coli host derived from the BL21 strain (T7 phage lysate)", "text": "as §1, §2, §3"}}, "data": [{"compound": "C#Cc1cccc(Nc2ncnc3cc(OC)c(OCCCN4CCOCC4)cc23)c1", "note": "[NRC-2694, N-(3-ethylnylphenyl)-7-methoxy-6-[3-(4-morpholinyl)propoxy]-4-quinazolinamine]", "values": [{"measurement": "% Ctrl @ 10000 nM", "setting": "ABL1 (E255K)", "result": 80, "unit": "% Ctrl"}, {"measurement": "% Ctrl @ 10000 nM", "setting": "ASK1", "result": 100, "unit": "% Ctrl"}, {"measurement": "% Ctrl @ 10000 nM", "setting": "BLK", "result": 4.4, "unit": "% Ctrl"}, {"measurement": "% Ctrl @ 10000 nM", "setting": "CLK4", "result": 17, "unit": "% Ctrl"}, {"measurement": "% Ctrl @ 10000 nM", "setting": "DAPK1", "result": 26, "unit": "% Ctrl"}, {"measurement": "% Ctrl @ 10000 nM", "setting": "DDR1", "result": 39, "unit": "% Ctrl"}, {"measurement": "% Ctrl @ 10000 nM", "setting": "EPHA5", "result": 86, "unit": "% Ctrl"}, {"measurement": "% Ctrl @ 10000 nM", "setting": "FES", "result": 72, "unit": "% Ctrl"}, {"measurement": "% Ctrl @ 10000 nM", "setting": "FLT4", "result": 66, "unit": "% Ctrl"}, {"measurement": "% Ctrl @ 10000 nM", "setting": "GCN2 (Kin.Dom.2.S808G)", "result": 12, "unit": "% Ctrl"}, {"measurement": "% Ctrl @ 10000 nM", "setting": "IKK-alpha", "result": 41, "unit": "% Ctrl"}, {"measurement": "% Ctrl @ 10000 nM", "setting": "LTK", "result": 3.8, "unit": "% Ctrl"}, {"measurement": "% Ctrl @ 10000 nM", "setting": "MKNK1", "result": 1.2, "unit": "% Ctrl"}, {"measurement": "% Ctrl @ 10000 nM", "setting": "PAK7", "result": 63, "unit": "% Ctrl"}, {"measurement": "% Ctrl @ 10000 nM", "setting": "PIK3CB", "result": 100, "unit": "% Ctrl"}, {"measurement": "% Ctrl @ 10000 nM", "setting": "RAF1", "result": 100, "unit": "% Ctrl"}, {"measurement": "% Ctrl @ 10000 nM", "setting": "RIPK4", "result": 96, "unit": "% Ctrl"}, {"measurement": "% Ctrl @ 10000 nM", "setting": "[1]", "result": 55, "unit": "% Ctrl"}, {"measurement": "% Ctrl @ 10000 nM", "setting": "TXK", "result": 39, "unit": "% Ctrl"}, {"measurement": "% Ctrl @ 10000 nM", "setting": "ULK3", "result": 62, "unit": "% Ctrl"}, {"measurement": "% Ctrl @ 10000 nM", "setting": "WEE1", "result": 74, "unit": "% Ctrl"}, {"measurement": "% Ctrl @ 10000 nM", "setting": "WEE2", "result": 53, "unit": "% Ctrl"}]}]}
